Source: US9655980B2, “Theranostic platform for targeted cancer therapy and drug delivery monitoring” (University of Pittsburgh—Of the Commonwealth System of …, priority 2012, dated 2017)
“And” between values parts separate entries of the source, which are not always exact repeats. Identical values can stand only once.

Legend:
[1] = UV-vis absorption and emission spectra (photophysical properties); format: physicochemical
Source text: FIG. […]
Similar observations have been reported on extended perylenediimides. […] This fluorescence enhancement in pluronic compared to water can be explained by the disruption of the non-fluorescent dye aggregates by pluronic, which formed micelles with dye monomers inside. The strong absorption in the NIR region and weak emission may render QR-G1-COOH to a promising photoacoustic imaging agent.

[2] = Photostability: NIR absorbance under ambient light; format: physicochemical; conditions: for decrease of absorbance after exposure to ambient light: 2 hours, absorption maximum wavelength; for NIR absorbance remaining: 31 days ambient light; for photostability compared with ICG: ambient light
Procedure: FIG. 3 is a graph showing the photostability of QR-G1-COOH, QR-G2-COOH and ICG in DMSO. Samples were exposed to the ambient light and the change of optical density at absorption maximum wavelength was monitored over time. All samples have the initial absorbance of about 1.2 at the absorption maximum wavelength. The signals were normalized against the values at 0 hour.
To evaluate the photostability of QR-G1-COOH and QR-G2-COOH, the NIR absorbance of these molecules exposed to ambient light was monitored and the results were compared with that of the FDA approved NIR dye, indocyanine green (ICG).

[3] = tested on: wild-type mouse malignant astrocytoma DBT (wt-DBT) cells; assay: In vitro cytotoxicity, hemocytometer-based trypan blue dye exclusion; format: cell-based; conditions: for cell viability: 2×10^−7 and 1×10^−5 M, 48 h
Source text: FIG. 4 is a graph showing the results cell viability tests of QR-G1-COOH and QR-G2-COOH on the wt-DBT cell line. Values are presented as mean±standard deviation.
The in vitro cytotoxicity of QR-G1-COOH and QR-G2-COOH against wild-type mouse malignant astrocytoma DBT (wt-DBT) cells was investigated using a hemocytometer-based trypan blue dye exclusion method.

[4] = Solubility / hydrophilicity observations; format: physicochemical; conditions: for hydrophilicity: as sodium salts
Source text: The most challenging step encountered during the synthesis of QR-G1-COOH and QR-G2-COOH was the ring cyclization of biperylene 6. Many quaterrylenes reported were synthesized through a base-assisted cyclodehydrogenation reaction using molten KOH/glucose, tert-BuOK/DBN in diglyme, or K2CO3 in ethanolamine. However, these reaction systems are not applicable for the synthesis of quaterrylene 7 because of the high reactivity of aldehyde under the harsh basic conditions. Recently, Müllen's group reported milder conditions for the preparation of uaterrylenedicarboximides and rylenediimides by the Lewis acids FeCl3/CH3NO2 and AlCl3/chlorobenzene. […] The following reduction of aldehyde groups on 7 by NaBH4 yielded benzyl alcohol 8 with a relatively low yield (32%). Coupling quaterrylene 8 with dendrons 9 and 10 provided the dendrimers QR-G1-triester and QR-G2-triester in 35% and 28% yields after purification by column chromatography.

[5] = UV-vis absorption and emission spectra (photophysical properties); format: physicochemical; conditions: DMSO; for Fluorescence quantum yield Φ: ICG in methanol as standard

λem ([1]; methanol, excited at 720 nm) [nm] | ε ([1]; water) | λabs ([1]; water) [nm] | decrease of absorbance after exposure to ambient light ([2]; DMSO) | absorbance change after illumination ([2]; DMSO, 3 days ambient light) [%] | NIR absorbance remaining ([2]; DMSO) [%] | photostability compared with ICG [2] | hydrophilicity [4] | λem [5] [nm] | Fluorescence quantum yield Φ [5] [%] | SMILES | ε (molar extinction coefficient) ([1]; methanol) | cytotoxicity to DBT cells [3] | cell viability ([3]; wt-DBT cells) | further results
815 | 0.56 10^5 M^−1 cm^−1 | 743 | no significant absorbance change | 3 | 77 | dramatically more photostable than ICG | high hydrophilicity | 816 | 0.32 | CC(C)c1cccc(C(C)C)c1N1C(=O)c2cc(Oc3ccc(COC(=O)CCC(=O)NC(CCC(=O)NC(CCC(=O)O)(CCC(=O)O)CCC(=O)O)(CCC(=O)NC(CCC(=O)O)(CCC(=O)O)CCC(=O)O)CCC(=O)NC(CCC(=O)O)(CCC(=O)O)CCC(=O)O)cc3)c3c4ccc5c6ccc7c8c(Oc9ccc(COC(=O)CCC(=O)NC(CCC(=O)NC(CCC(=O)O)(CCC(=O)O)CCC(=O)O)(CCC(=O)NC(CCC(=O)O)(CCC(=O)O)CCC(=O)O)CCC(=O)NC(CCC(=O)O)(CCC(=O)O)CCC(=O)O)cc9)cc9c%10c(cc(Oc%11ccc(COC(=O)CCC(=O)NC(CCC(=O)NC(CCC(=O)O)(CCC(=O)O)CCC(=O)O)(CCC(=O)NC(CCC(=O)O)(CCC(=O)O)CCC(=O)O)CCC(=O)NC(CCC(=O)O)(CCC(=O)O)CCC(=O)O)cc%11)c(c%11ccc(c%12ccc(c%13c(Oc%14ccc(COC(=O)CCC(=O)NC(CCC(=O)NC(CCC(=O)O)(CCC(=O)O)CCC(=O)O)(CCC(=O)NC(CCC(=O)O)(CCC(=O)O)CCC(=O)O)CCC(=O)NC(CCC(=O)O)(CCC(=O)O)CCC(=O)O)cc%14)cc(c2c3%13)C1=O)c4c5%12)c6c7%11)c%108)C(=O)N(c1c(C(C)C)cccc1C(C)C)C9=O [QR-G2-COOH] | 121000 M⁻¹ cm⁻¹ | low cytotoxicity | about 90% | quantum yield relative to QR-G1-COOH ([1]; Table 1): roughly two times higher; ε ([1]; methanol, values in order of the listed absorption bands): 1.21 10^5 M^−1 cm^−1; λem ([1]; water, pluronic ~10 wt %/wt): 809 nm
– | – | – | – | – | – | – | – | – | – | CC(C)c1cccc(C(C)C)c1N1C(=O)c2cc(Oc3ccc(COC(=O)CCC(=O)NC(CCC(=O)OC(C)(C)C)(CCC(=O)OC(C)(C)C)CCC(=O)OC(C)(C)C)cc3)c3c4ccc5c6ccc7c8c(Oc9ccc(COC(=O)CCC(=O)NC(CCC(=O)OC(C)(C)C)(CCC(=O)OC(C)(C)C)CCC(=O)OC(C)(C)C)cc9)cc9c%10c(cc(Oc%11ccc(COC(=O)CCC(=O)NC(CCC(=O)OC(C)(C)C)(CCC(=O)OC(C)(C)C)CCC(=O)OC(C)(C)C)cc%11)c(c%11ccc(c%12ccc(c%13c(Oc%14ccc(COC(=O)CCC(=O)NC(CCC(=O)OC(C)(C)C)(CCC(=O)OC(C)(C)C)CCC(=O)OC(C)(C)C)cc%14)cc(c2c3%13)C1=O)c4c5%12)c6c7%11)c%108)C(=O)N(c1c(C(C)C)cccc1C(C)C)C9=O [QR-G1-triester] | – | – | – | solubility in organic solvents ([4]; toluene, dichloromethane, chloroform, ethyl acetate, methanol): highly soluble
– | – | – | – | – | – | – | – | – | – | C[S+](C)[O-] [DMSO, reference compound] | – | – | – | live cells (positive control group) ([3]; wt-DBT cells, 5% DMSO, after 48 h): 66.9%
– | – | – | 48% | – | – | – | – | – | – | CC1(C)C(/C=C/C=C/C=C/C=C2\N(CCCCS(=O)(=O)O)c3ccc4ccccc4c3C2(C)C)=[N+](CCCCS(=O)(=O)[O-])c2ccc3ccccc3c21 [ICG, indocyanine green, reference compound] | – | – | – | absorbance observed after illumination ([2]; DMSO, 3 days ambient light): no significant absorbance
813 | 0.74 10^5 M^−1 cm^−1 | 739 | no significant absorbance change | 1 | 85 | dramatically more photostable than ICG | high hydrophilicity | 816 | 0.11 | CC(C)c1cccc(C(C)C)c1N1C(=O)c2cc(Oc3ccc(COC(=O)CCC(=O)NC(CCC(=O)O)(CCC(=O)O)CCC(=O)O)cc3)c3c4ccc5c6ccc7c8c(Oc9ccc(COC(=O)CCC(=O)NC(CCC(=O)O)(CCC(=O)O)CCC(=O)O)cc9)cc9c%10c(cc(Oc%11ccc(COC(=O)CCC(=O)NC(CCC(=O)O)(CCC(=O)O)CCC(=O)O)cc%11)c(c%11ccc(c%12ccc(c%13c(Oc%14ccc(COC(=O)CCC(=O)NC(CCC(=O)O)(CCC(=O)O)CCC(=O)O)cc%14)cc(c2c3%13)C1=O)c4c5%12)c6c7%11)c%108)C(=O)N(c1c(C(C)C)cccc1C(C)C)C9=O [QR-G1-COOH] | 146000 M⁻¹ cm⁻¹ and 143000 M⁻¹ cm⁻¹ | low cytotoxicity | about 90% | fluorescence in pluronic compared to water ([1]; 0.4% wt/wt of pluronic): large fluorescence enhancement; λabs ([1]; methanol): 771 nm and 728 nm; λem ([1]; water, pluronic ~0.4 wt %/wt): 807 nm; fluorescence in water ([1]; water, excited at 720 nm): nearly no fluorescence
